Reference: US11680086B2, “Lipopeptide for potently inhibiting HIV, derivative thereof, pharmaceutical composition thereof and use thereof” (Institute of Pathogen Biology, Chinese Academy of Medical …, priority 2017, dated 2023)
Peptide text beside a SMILES is read from it. * marks the point of attachment. X1 = Cc1c(C)c2c(c(C)c1OC(=O)CCC(=O)*)CCC(C)(CCCC(C)CCCC(C)CCCC(C)C)O2; Stearoyl = CCCCCCCCCCCCCCCCCC(=O)*; Palmitoyl = CCCCCCCCCCCCCCCC(=O)*

Columns and labels:
[1] = target: N39 (NHR-derived polypeptide of gp41) (Human immunodeficiency virus type 1 group M subtype B, UniProt P04578); type: binding, HIV-1; conditions: 10 μM each, PBS pH 7.2
Chain of N39 (NHR-derived polypeptide of gp41) (P04578 528-566): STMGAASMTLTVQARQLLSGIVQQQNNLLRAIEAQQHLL
Description: The circular dichroism spectrophotometer was Jasco-815 by JASCO Inc., and the assay method was referred to the papers published by the inventors (see the References 18 and 30 listed in the Background Art). […] The N39 and an inhibitor were separately dissolved in a phosphate buffered saline (PBS) to prepare a PBS solution (pH 7.2) of a concentration of 20 μM. The N39 was mixed with an inhibitor at a volume ratio of 1:1 (final concentration of 10 μM for each), the mixed sample was placed at 37° C. for 30 minutes to fully react, and then the helix content and Tm value of the resultant complex were measured by the circular dichroism spectrophotometer. The scan wavelength range of the device was 195-260 nm with a wavelength interval of 1 nm, and the values measured by scanning for three times were averaged. Based on the CD signals, the interaction between the polypeptides and the helix content were determined. Then, the sample for CD signal measurement was transferred to the temperature scanning sample cell, the program of the CD device was set to temperature scanning with a detection wavelength of 220 nm and scanning range of 20-98° C., and the program scan was performed to obtain the curve of the CD signals vs temperature, based on which the Tm value was calculated. Based on the Tm value, the stability of the formed helical structure of the inhibitor and N39 was judged.

[2] = test system: 35 HIV-1 pseudoviruses (subtypes A, B, B', C, G, A/C, A/E, B/C); conditions: for IC50: read-out: average IC50 for inhibition of various types of HIV-1 pseudoviruses, average over 35 pseudoviruses; for inhibitory activity against different subtypes of HIV-1 as folds of T-20: relative to T-20, from average IC50
Excerpt: HIV-1 pseudovirus-mediated cell entry inhibition assay: basic steps included: (1) Preparation of HIV-1 pseudovirus: the 293T cells were co-transfected with a plasmid expressing the envelope protein (Env) of HIV-1 strain NL4-3 (i.e., a recombinant expression plasmid obtained by inserting the gene encoding the envelope protein (ENV) of the D36G mutant of the HIV-1 strain NL4-3 in the Table 2 of the Reference 14 listed in the Background Art into the vector pcDNA3.1(−)) and the HIV-1 backbone plasmid pSG3Δenv (provided by the AIDS Reagent Program of National Institutes of Health (NIH), catalog number: 11051) by using a cell transfection reagent, incubated in a cell incubator of 37° C. and 5% CO2 for 6 hours, and then the medium was changed, and the cells were further incubated for 48 hours. The cell culture supernatant containing pseudovirus particles was pipetted and filtered with a 0.45 μm filter to collect the supernatant, then 20% fetal bovine serum (FBS) was added thereto, the final solution was transferred to a polypropylene tube, and stored at −80° C. for ready for use or directly subjected to virus titration. (2) Titration of HIV-1 pseudovirus: the viruses were diluted by 5 folds in a 96-well plate, and 4 replicate wells with 8 gradients were set to a final volume of 100 microliters. The TZM-b1 cells were trypsinized and counted, and the cells were diluted to 1×10^5 cells/ml with DMEM complete medium; 100 μl of cells dilution (containing 15 μg/ml DEAE-dextran) per well were added and cultured at 37° C. and 5% CO2 for 48 hours. The 96-well plate was then taken from the cell culture incubator. The supernatant was discarded from the wells. To each well, 30 μl of a cell lysate was added, and after 10 minutes, 100 μl of a luciferase detection reagent was added. 100 μl of liquid was pipetted from each well and added to a corresponding 96-well white plate, and the luminescence values were read by a microplate photometer. The virus titer was calculated by the Reed-Muench method. (3) Antiviral activity assay: the test substance was dissolved in DMSO and diluted with a cell culture solution by 3 folds, and placed in a 96-well plate at a final volume of […]. 50 μl of a DMEM medium was used in place of the test substance as a negative control. To each well, 100 μl of TZM-b1 target cells solution (containing 15 μg/ml DEAE-dextran) at a concentration of 1×10^5 cells/ml was added, and then 50 μl (corresponding to 100 TCID50 per well) of the HIV-1 pseudovirus obtained above was added. After incubation at 37° C. and 5% CO2 for 48 hours, the relative light units (RLU) of each well were determined by using a luciferase detection reagent (Promega). Inhibition rate (%) and IC50 value were calculated.
Among them, the A, B and C subtypes were the main viruses causing AIDS epidemic in the world, while B/C and A/E recombinant viruses were the main viruses in China. […] Among the Env expression plasmids used for the preparation of pseudoviral, except that the Env expression plasmids used for preparation of PVO, Du156 and CAP 210.2.00.E8 were obtained from the AIDS Reagent Program of NIH in the United states, other plasmids were preserved by the laboratory of Prof. He Yuxian, Institute of Pathogen Biology, Chinese Academy of Medical Sciences, please see the References 13, 14 and 18 listed in the Background Art and articles of Chong et al. (Chong H, Yao X, Zhang C, Cai L, Cui S, Wang Y, He Y. Biophysical property and broad anti-HIV activity of Albuvirtide, a 3-maleimimidoproprotionic acid-modified peptide fusion inhibitor. PLoS One, 2012; 7 (3): e 32599). The preparation of the pseudovirus and the antiviral assay were the same as those in Example 2.1 of Example 2 (HIV-1 pseudovirus-mediated cell entry inhibition assay).

[3] = test system: HIV-1 strain NL4-3 (NL4-3D36G); assay: antiviral activity in serum of macaque after subcutaneous injection; type: in vivo, macaques (rhesus monkeys); conditions: 3 mg/kg subcutaneous
Description: The specific method was as follows: 6 experimental macaques (rhesus monkeys) were selected, half male and half female, aged 3-4 years old, weighing 3.4-4.7 kg. […] The serum was separated according to a conventional method. The injection interval of each inhibitor was more than 2 weeks to ensure that there was no residue of the previous analyte. The serum activity against the HIV-1 strain NL4-3 (NL4-3D36G) was measured according to the experimental method of the pseudovirus-based assay in the above examples. The serum was diluted by 3 folds. […] Therefore, the lipopeptides of the present invention were not only potent but also were long-lasting effective.

[4] = 72 hours (3 days) after injection

Compound	Tm value of the complex with N39 [1] [°C]	IC50 [2] [nM]	inhibitory activity against different subtypes of HIV-1 as folds of T-20 [2] [folds]	maximum serum dilution multiple for inhibiting 50% of NL4-3 infectivity ([3]; 4 hour after injection) [folds]	maximum serum dilution multiple for inhibiting 50% of NL4-3 infectivity ([3]; 6 hour after injection) [folds]	maximum serum dilution multiple for inhibiting 50% of NL4-3 infectivity [3, 4] [folds]	helix content of the complex with N39 [1] [%]	interaction / binding to N39 (in words) [1]
CCCCCCCCCCCCCCCC(=O)NCCCC[C@H](NC(=O)[C@H](CCC(=O)O)NC(=O)[C@H](CC(C)C)NC(=O)[C@H](CCCCN)NC(=O)[C@H](CCCCN)NC(=O)[C@H](CC(C)C)NC(=O)[C@H](CCC(=O)O)NC(=O)[C@H](CCC(=O)O)NC(=O)[C@H](CCC(=O)O)NC(=O)[C@H](CC(N)=O)NC(=O)[C@H](CCCCN)NC(=O)[C@H](CCCCN)NC(=O)[C@H](CCC(N)=O)NC(=O)[C@H](CCC(N)=O)NC(=O)[C@H](CCC(=O)O)NC(=O)[C@H](CCC(=O)O)NC(=O)[C@H](C)NC(=O)[C@H](CCCCN)NC(=O)[C@H](CCCCN)NC(=O)[C@H](CC(C)C)NC(=O)[C@H](CC(C)C)NC(=O)[C@H](CCC(=O)O)NC(=O)[C@H](CCC(=O)O)NC(=O)[C@@H](NC(=O)[C@H](CC(N)=O)NC(=O)[C@H](C)NC(=O)[C@H](CCC(=O)O)NC(=O)[C@H](CC(C)C)NC(C)=O)[C@@H](C)CC)C(N)=O [LP-51] (Ac-LEANIEELLKKAEEQQKKNEEELKKLEK(Palmitoyl)-NH2)	72	0.033	1255	700482	584381	1122	–	–
CCCCCCCCCCCCCCCC(=O)NCCCC[C@H](NC(=O)[C@H](CCC(=O)O)NC(=O)[C@H](CC(C)C)NC(=O)[C@H](CCCCN)NC(=O)[C@H](CCCCN)NC(=O)[C@H](CC(C)C)NC(=O)[C@H](CCC(=O)O)NC(=O)[C@H](CCC(=O)O)NC(=O)[C@H](CCC(=O)O)NC(=O)[C@H](CC(N)=O)NC(=O)[C@H](CCCCN)NC(=O)[C@H](CCCCN)NC(=O)[C@H](CCC(N)=O)NC(=O)[C@H](CCC(N)=O)NC(=O)[C@H](CCC(=O)O)NC(=O)[C@H](CCC(=O)O)NC(=O)[C@H](C)NC(=O)[C@H](CCCCN)NC(=O)[C@H](CCCCN)NC(=O)[C@H](CC(C)C)NC(=O)[C@H](CC(C)C)NC(=O)[C@H](CCC(=O)O)NC(=O)[C@H](CCC(=O)O)NC(=O)[C@@H](NC(=O)[C@H](CCCCN)NC(=O)[C@H](CCC(N)=O)NC(=O)[C@H](CCC(=O)O)NC(=O)[C@H](Cc1c[nH]c2ccccc12)NC(C)=O)[C@@H](C)CC)C(N)=O [LP-52] (Ac-WEQKIEELLKKAEEQQKKNEEELKKLEK(Palmitoyl)-NH2)	79.1	0.016	2588	700802	669112	182	63.8	–
CC[C@H](C)[C@H](NC(=O)[C@H](CCCCN)NC(=O)[C@H](CCC(N)=O)NC(=O)[C@H](CCC(=O)O)NC(=O)[C@H](Cc1c[nH]c2ccccc12)NC(C)=O)C(=O)N[C@@H](CCC(=O)O)C(=O)N[C@@H](CCC(=O)O)C(=O)N[C@@H](CC(C)C)C(=O)N[C@@H](CC(C)C)C(=O)N[C@@H](CCCCN)C(=O)N[C@@H](CCCCN)C(=O)N[C@@H](C)C(=O)N[C@@H](CCC(=O)O)C(=O)N[C@@H](CCC(=O)O)C(=O)N[C@@H](CCC(N)=O)C(=O)N[C@@H](CCC(N)=O)C(=O)N[C@@H](CCCCN)C(=O)N[C@@H](CCCCN)C(=O)N[C@@H](CC(N)=O)C(=O)N[C@@H](CCC(=O)O)C(=O)N[C@@H](CCC(=O)O)C(=O)N[C@@H](CCC(=O)O)C(=O)N[C@@H](CC(C)C)C(=O)N[C@@H](CCCCN)C(=O)N[C@@H](CCCCN)C(=O)N[C@@H](CC(C)C)C(=O)N[C@@H](CCC(=O)O)C(=O)N[C@@H](CCCCNC(=O)CCC(=O)Oc1c(C)c(C)c2c(c1C)CCC(C)(CCCC(C)CCCC(C)CCCC(C)C)O2)C(N)=O (stereo partly drawn) [LP-85] (Ac-WEQKIEELLKKAEEQQKKNEEELKKLEK(X1)-NH2)	–	–	941	–	–	–	–	strong helical binding stability
CCCCCCCCCCCCCCCCCC(=O)NCCCC[C@H](NC(=O)[C@H](CCC(=O)O)NC(=O)[C@H](CC(C)C)NC(=O)[C@H](CCCCN)NC(=O)[C@H](CCCCN)NC(=O)[C@H](CC(C)C)NC(=O)[C@H](CCC(=O)O)NC(=O)[C@H](CCC(=O)O)NC(=O)[C@H](CCC(=O)O)NC(=O)[C@H](CC(N)=O)NC(=O)[C@H](CCCCN)NC(=O)[C@H](CCCCN)NC(=O)[C@H](CCC(N)=O)NC(=O)[C@H](CCC(N)=O)NC(=O)[C@H](CCC(=O)O)NC(=O)[C@H](CCC(=O)O)NC(=O)[C@H](C)NC(=O)[C@H](CCCCN)NC(=O)[C@H](CCCCN)NC(=O)[C@H](CC(C)C)NC(=O)[C@H](CC(C)C)NC(=O)[C@H](CCC(=O)O)NC(=O)[C@H](CCC(=O)O)NC(=O)[C@@H](NC(C)=O)[C@@H](C)CC)C(N)=O [LP-90] (Ac-IEELLKKAEEQQKKNEEELKKLEK(Stearoyl)-NH2)	71.1	0.014	2958	–	–	–	–	–
